From US10308608B2, “Histone deacetylase inhibitors” (BIOMARIN PHARMACEUTICAL INC., priority 2015, dated 2019)
Where a name gives a salt, the structure may show the parent alone. Read-outs that look alike come from different tables or passages of the source.

System: Frataxin (FXN) mRNA
Experiment: Effect of HDAC inhibitors on frataxin (FXN) mRNA expression, qRT-PCR in compound-treated iPSC derived neuronal cells
Assay type: cell-based
Conditions: iPSC, 24 h
Description: Effect of HDAC Inhibitors on Frataxin (FXN) mRNA Expression
Method: mRNA quantification of compound-treated iPSC derived neuronal cells Neuronal stem cells were cultured in Neurobasal A medium (Life technologies #10888022) supplemented with N2, B27 (Life technologies #17502-048 and #17504-044), L-glutamine (Life technologies #25030081), supplemented with 20 ng/ml EGF (R&D Systems #236-EG) and 20 ng/ml bFGF (BioPioneer # HRP-0011). Neuronal differentiation was initiated by removing growth factors and culturing cells in Neurobasal A with N2 and B27. Cells were allowed to differentiate for 16 days. HDAC inhibitory compound was then added and incubate for 24 h. RNA isolation was performed using the RNeasy Plus mini kit (QIAgen #74134) using a QIAcube instrument per manufacturer's instructions. qRT-PCR was performed using qScript One-Step SYBR Green qRT-PCR Kit (Quanta Biosciences 170-8893BR) with the following conditions: 20 minutes at 50° C., 5 minutes at 95° C., and then 40 cycles of 20 seconds at 95° C., 20 seconds at 55° C., 30 seconds at 72° C. The primer sequences to detect expression of FXN were: 5′-[…]-3′ and 5′-[…]-3′.
The data for the following compounds, for FXN mRNA fold induction at a compound concentration of 0.625 μM are shown in Table 1, where A<1, 1<B<2, 2<C<3, 3<D<5, E>5.

[1] = compound concentration of 0.625 μM, 24 h incubation, read-out: FXN mRNA fold induction
[2] = read-out: FXN mRNA fold induction, compound concentration of 0.625 μM, 24 h incubation

SMILES | fold induction at 0.625 µM [1] | fold induction at 0.625 µM [2]
Nc1ccccc1NC(=O)c1ccc(O[C@H]2CCN(CC3CC3)C2)cc1 [Compound 54, (S)-N-(2-aminophenyl)-4-((1-(cyclopropylmethyl)pyrrolidin-3-yl)oxy)benzamide dihydrochloride] | 1 to 2 | 
CC1(CN2CC[C@H](Oc3ccc(C(=O)Nc4ccccc4N)cc3)C2)CC1 [Compound 55, (S)-N-(2-aminophenyl)-4-((1-((1-methylcyclopropyl)methyl)pyrrolidin-3-yl)oxy)benzamide dihydrochloride] | 2 to 3 | 
Nc1ccccc1NC(=O)c1ccc(O[C@H]2CCN(CC3CCCCC3)C2)cc1 [Compound 56, (S)-N-(2-aminophenyl)-4-((1-(cyclohexylmethyl)pyrrolidin-3-yl)oxy)benzamide dihydrochloride] | 2 to 3 | 
Nc1ccccc1NC(=O)c1ccc(O[C@@H]2CCNC2)cc1 [Compound 57, (R)-N-(2-aminophenyl)-4-(pyrrolidin-3-yloxy)benzamide hydrochloride] | 2 to 3 | 
CN1CC[C@@H](Oc2ccc(C(=O)Nc3ccccc3N)cc2)C1 [Compound 58, (R)-N-(2-aminophenyl)-4-((1-methylpyrrolidin-3-yl)oxy)benzamide] | 2 to 3 | 
CC(C)CN1CC[C@@H](Oc2ccc(C(=O)Nc3ccccc3N)cc2)C1 [Compound 59, (R)-N-(2-aminophenyl)-4-((1-isobutylpyrrolidin-3-yl)oxy)benzamide dihydrochloride] | 1 to 2 | 
CC(C)(O)CN1CC[C@@H](Oc2ccc(C(=O)Nc3ccccc3N)cc2)C1 [Compound 60, (R)-N-(2-aminophenyl)-4-((1-(2-hydroxy-2-methylpropyl)pyrrolidin-3-yl)oxy)benzamide dihydrochloride] | 1 to 2 | 
CC(C)(C)CN1CC[C@@H](Oc2ccc(C(=O)Nc3ccccc3N)cc2)C1 [Compound 61, (R)-N-(2-aminophenyl)-4-((1-neopentylpyrrolidin-3-yl)oxy)benzamide] | 1 to 2 | 
Nc1ccccc1NC(=O)c1ccc(O[C@@H]2CCN(CC3CC3)C2)cc1 [Compound 62, (R)-N-(2-aminophenyl)-4-((1-(cyclopropylmethyl)pyrrolidin-3-yl)oxy)benzamide dihydrochloride] | 1 to 2 | 
CC1(CN2CC[C@@H](Oc3ccc(C(=O)Nc4ccccc4N)cc3)C2)CC1 [Compound 63, (R)-N-(2-aminophenyl)-4-((1-((1-methylcyclopropyl)methyl)pyrrolidin-3-yl)oxy)benzamide dihydrochloride] | 2 to 3 | 
Nc1ccccc1NC(=O)c1ccc(O[C@@H]2CCN(CC3CCCCC3)C2)cc1 [Compound 64, (R)-N-(2-aminophenyl)-4-((1-(cyclohexylmethyl)pyrrolidin-3-yl)oxy)benzamide dihydrochloride] | 2 to 3 | 
Nc1ccccc1NC(=O)c1ccc(OC2CCNCC2)cc1 [Compound 65, N-(2-aminophenyl)-4-(piperidin-4-yloxy)benzamide hydrochloride] | 2 to 3 | 
CN1CCC(Oc2ccc(C(=O)Nc3ccccc3N)cc2)CC1 [Compound 66, N-(2-aminophenyl)-4-((1-methylpiperidin-4-yl)oxy)benzamide dihydrochloride] | 1 to 2 | 
CC(C)CN1CCC(Oc2ccc(C(=O)Nc3ccccc3N)cc2)CC1 [Compound 67, N-(2-aminophenyl)-4-((1-isobutylpiperidin-4-yl)oxy)benzamide dihydrochloride] | 1 to 2 | 
CC1(CN2CCC(Oc3ccc(C(=O)Nc4ccccc4N)cc3)CC2)CC1 [Compound 68, N-(2-aminophenyl)-4-((1-((1-methylcyclopropyl)methyl)piperidin-4-yl)oxy)benzamide dihydrochloride] | 1 to 2 | 
Nc1ccccc1NC(=O)c1ccc(OC2CCN(CC3CCCCC3)CC2)cc1 [Compound 69, N-(2-aminophenyl)-4-((1-(cyclohexylmethyl)piperidin-4-yl)oxy)benzamide dihydrochloride] | 1 to 2 | 
Nc1ccccc1NC(=O)c1ccc(OC2CC3CCC(C2)N3)cc1 (centres unmarked) [Compound 70, 4-((8-azabicyclo[3.2.1]octan-3-yl)oxy)-N-(2-aminophenyl)benzamide hydrochloride] | 1 to 2 | 
CN1C2CCC1CC(Oc1ccc(C(=O)Nc3ccccc3N)cc1)C2 (centres unmarked) [Compound 71, N-(2-aminophenyl)-4-((8-methyl-8-azabicyclo[3.2.1]octan-3-yl)oxy)benzamide dihydrochloride] |  | 1 to 2
CC(C)CN1C2CCC1CC(Oc1ccc(C(=O)Nc3ccccc3N)cc1)C2 (centres unmarked) [Compound 72, N-(2-aminophenyl)-4-((8-isobutyl-8-azabicyclo[3.2.1]octan-3-yl)oxy)benzamide dihydrochloride] |  | 1 to 2
CC(C)(O)CN1C2CCC1CC(Oc1ccc(C(=O)Nc3ccccc3N)cc1)C2 (centres unmarked) [Compound 73, N-(2-aminophenyl)-4-((8-(2-hydroxy-2-methylpropyl)-8-azabicyclo[3.2.1]octan-3-yl)oxy)benzamide dihydrochloride] |  | 1 to 2
CC(C)(C)CN1C2CCC1CC(Oc1ccc(C(=O)Nc3ccccc3N)cc1)C2 (centres unmarked) [Compound 74, N-(2-aminophenyl)-4-((8-neopentyl-8-azabicyclo[3.2.1]octan-3-yl)oxy)benzamide dihydrochloride] |  | 1 to 2
Nc1ccccc1NC(=O)c1ccc(OC2CC3CCC(C2)N3CC2CC2)cc1 (centres unmarked) [Compound 75, N-(2-aminophenyl)-4-((8-(cyclopropylmethyl)-8-azabicyclo[3.2.1]octan-3-yl)oxy)benzamide dihydrochloride] |  | 1 to 2
CC1(CN2C3CCC2CC(Oc2ccc(C(=O)Nc4ccccc4N)cc2)C3)CC1 (centres unmarked) [Compound 76, N-(2-aminophenyl)-4-((8-((1-methylcyclopropyl)methyl)-8-azabicyclo[3.2.1]octan-3-yl)oxy)benzamide dihydrochloride] |  | 2 to 3
Nc1ccccc1NC(=O)c1ccc(OC2CC3CCC(C2)N3CC2CCCCC2)cc1 (centres unmarked) [Compound 77, N-(2-aminophenyl)-4-((8-(cyclohexylmethyl)-8-azabicyclo[3.2.1]octan-3-yl)oxy)benzamide dihydrochloride] |  | 1 to 2
Nc1ccccc1NC(=O)c1ccc(NC2CCCNCC2)cc1 (centres unmarked) [Compound 78, N-(2-aminophenyl)-4-(azepan-4-ylamino)benzamide tris(2,2,2-trifluoroacetate)] | 2 to 3 | 
CC(C)CN1CCCC(Nc2ccc(C(=O)Nc3ccccc3N)cc2)CC1 (centres unmarked) [Compound 80, N-(2-aminophenyl)-4-((1-isobutylazepan-4-yl)amino)benzamide] | 2 to 3 | 
CC(C)(O)CN1CCCC(Nc2ccc(C(=O)Nc3ccccc3N)cc2)CC1 (centres unmarked) [Compound 81, N-(2-aminophenyl)-4-((1-(2-hydroxy-2-methylpropyl)azepan-4-yl)amino)benzamide trihydrochloride] | 1 to 2 | 
Nc1ccccc1NC(=O)c1ccc(NC2CCCN(CC3CC3)CC2)cc1 (centres unmarked) [Compound 83, N-(2-aminophenyl)-4-((1-(cyclopropylmethyl)azepan-4-yl)amino)benzamide trihydrochloride] | 2 to 3 | 
Nc1ccccc1NC(=O)c1ccc(NC2CCCN(CC3CCCCC3)CC2)cc1 (centres unmarked) [Compound 85, N-(2-aminophenyl)-4-((1-(cyclohexylmethyl)azepan-4-yl)amino)benzamide] | 2 to 3 | 
